According to US10358437B2, “Therapeutic compounds and uses thereof” (GENENTECH, INC., priority 2014, dated 2019):
Counter-ions that a name gives are not always drawn.

Target: T1, PCAF bromodomain (Homo sapiens, UniProt Q92831)
T1 construct: Flag; made in house
T1 sequence (Q92831 719-832): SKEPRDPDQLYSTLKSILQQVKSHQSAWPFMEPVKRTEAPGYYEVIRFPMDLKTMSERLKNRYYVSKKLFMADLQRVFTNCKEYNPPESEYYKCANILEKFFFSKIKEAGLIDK
Test: PCAF AlphaLisa binding assay
Conditions: His/Flag tagged PCAF719-832 bromodomain 225 nM, biotinylated small molecule ligand 6 nM
Method: IC50 Measurements for Inhibitors Using PCAF AlphaLisa Binding Assay
His/Flag epitope tagged PCAF719-832 bromodomain was cloned, expressed and purified to homogeneity in-house. PCAF bromodomain binding and inhibition of the compounds disclosed herein was assessed by monitoring the engagement of biotinylated small molecule ligand (known to bind to the PCAF bromodomain) with the target using the AlphaLisa technology (Perkin-Elmer). Specifically, in a 384 well ProxiPlate PCAF bromodomain (225 nM final) was combined with the biotinylated small molecule ligand (6 nM final) in 50 mM HEPES (pH 7.5), 75 mM NaCl, 1 mM TCEP, 0.01% (w/v) BSA, and 0.008% (w/v) Brij-35 either in the presence of DMSO (final 0.2% DMSO) or compound dilution series in DMSO. After 15 minute incubation at room temperature AlphaLisa streptavidin acceptor beads and AlphaLisa anti-histidine donor beads were added to a final concentration of 12.5 μg/mL each.
PCAF IC50 values for the Examples 1-22 were determined using the general procedure described above.

| IC50 [nM] | Structure (SMILES) |
| --- | --- |
| > 20000 | CN1c2ccccc2CCC1CNc1nn(C)c(=O)n(C)c1=O (racemic) [Example 2, 2,4-dimethyl-6-(((1-methyl-1,2,3,4-tetrahydroquinolin-2-yl)methyl)amino)-1,2,4-triazine-3,5(2H,4H)-dione] |
| 2500 | CN1CCCC1CNc1nn(C)c(=O)n(C)c1=O (racemic) [Example 3, 2,4-dimethyl-6-(((1-methylpyrrolidin-2-yl)methyl)amino)-1,2,4-triazine-3,5(2H,4H)-dione] |
| 280 | CN(C)C(CNc1nn(C)c(=O)n(C)c1=O)c1ccc(F)cc1 (racemic) [Example 4, 6-((2-(dimethylamino)-2-(4-fluorophenyl)ethyl)amino)-2,4-dimethyl-1,2,4-triazine-3,5(2H,4H)-dione] |
| 150 | COc1ccc(C(CNc2nn(C)c(=O)n(C)c2=O)N(C)C)cc1 (racemic) [Example 6, 6-((2-(dimethylamino)-2-(4-methoxyphenyl)ethyl)amino)-2,4-dimethyl-1,2,4-triazine-3,5(2H,4H)-dione] |
| 380 | CN1Cc2ccccc2CC1CNc1nn(C)c(=O)n(C)c1=O (racemic) [Example 8, 2,4-dimethyl-6-[(2-methyl-3,4-dihydro-1H-isoquinolin-3-yl)methylamino]-1,2,4-triazine-3,5-dione] |
| 430 | CN(C)C(CNc1nn(C)c(=O)n(C)c1=O)c1cccc(Cl)c1 (racemic) [Example 10, 6-((2-(3-chlorophenyl)-2-(dimethylamino)ethyl)amino)-2,4-dimethyl-1,2,4-triazine-3,5(2H,4H)-dione] |
| > 20000 | CN(C)C1CCCN(c2nn(C)c(=O)n(C)c2=O)C1 (racemic) [Example 12, 6-(3-(dimethylamino)piperidin-1-yl)-2,4-dimethyl-1,2,4-triazine-3,5(2H,4H)-dione] |
| > 20000 | Cn1nc(N2CCNC(c3ccccc3)C2)c(=O)n(C)c1=O (racemic) [Example 13, 2,4-dimethyl-6-(3-phenylpiperazin-1-yl)-1,2,4-triazine-3,5(2H,4H)-dione] |
| 250 | CN(C)C(CNc1nn(C)c(=O)n(C)c1=O)c1ccc(C(F)(F)F)cc1 (racemic) [Example 14, 6-((2-(dimethylamino)-2-(4-(trifluoromethyl)phenyl)ethyl)amino)-2,4-dimethyl-1,2,4-triazine-3,5(2H,4H)-dione] |
| 480 | CN(C)C(C)(CNc1nn(C)c(=O)n(C)c1=O)c1ccccc1 (racemic) [Example 15, 6-((2-(dimethylamino)-2-phenylpropyl)amino)-2,4-dimethyl-1,2,4-triazine-3,5(2H,4H)-dione] |
| 8100 | Cn1nc(NCC(c2ccccc2)N2CCCC2)c(=O)n(C)c1=O (racemic) [Example 16, 2,4-dimethyl-6-((2-phenyl-2-(pyrrolidin-1-yl)ethyl)amino)-1,2,4-triazine-3,5(2H,4H)-dione] |
| 1100 | CN(C)[C@H]1CCCC[C@H]1Nc1nn(C)c(=O)n(C)c1=O (racemic) [Example 19, 6-((2-(dimethylamino)cyclohexyl)amino)-2,4-dimethyl-1,2,4-triazine-3,5(2H,4H)-dione hydrochloride] |
| 230 | CN(C)[C@@H]1CCCC[C@H]1Nc1nn(C)c(=O)n(C)c1=O (racemic) [Example 20, 6-(((1R,2R)-2-(dimethylamino)cyclohexyl)amino)-2,4-dimethyl-1,2,4-triazine-3,5(2H,4H)-dione] |
| 1200 | CN1CCc2ccccc2C1CNc1nn(C)c(=O)n(C)c1=O (racemic) [Example 21, 2,4-dimethyl-6-(((2-methyl-1,2,3,4-tetrahydroisoquinolin-1-yl)methyl)amino)-1,2,4-triazine-3,5(2H,4H)-dione] |
| 12000 | CCn1nc(NCC(c2ccccc2)N(C)C)c(=O)n(CC)c1=O (racemic) [Example 22, 6-((2-(dimethylamino)-2-phenylethyl)amino)-2,4-diethyl-1,2,4-triazine-3,5(2H,4H)-dione] |
| 120 | C[C@H](Nc1nn(C)c(=O)n(C)c1=O)[C@H](c1ccccc1)N(C)C (single isomer, unassigned) [Example 17] |
| 70 | C[C@H](Nc1nn(C)c(=O)n(C)c1=O)[C@H](c1ccc(S(=O)(=O)c2ccccc2)cc1)N(C)C (single isomer, unassigned) [Example 18] |
| > 20000 | CN(CCNc1nn(C)c(=O)n(C)c1=O)CC(F)(F)F [Example 1, 2,4-dimethyl-6-((2-(methyl(2,2,2-trifluoroethyl)amino)ethyl)amino)-1,2,4-triazine-3,5(2H,4H)-dione] |
| 65000 | Cn1nc(NCCNc2ccccc2)c(=O)n(C)c1=O [Example 5, 2,4-dimethyl-6-((2-(phenylamino)ethyl)amino)-1,2,4-triazine-3,5(2H,4H)-dione] |
| 37000 | CN(C)CCN(C)c1nn(C)c(=O)n(C)c1=O [Example 7, 6-((2-(dimethylamino)ethyl)(methyl)amino)-2,4-dimethyl-1,2,4-triazine-3,5(2H,4H)-dione (trifluoroacetic acid salt)] |
| 7500 | CN(CCNc1nn(C)c(=O)n(C)c1=O)Cc1ccccc1 [Example 9, 6-((2-(benzyl(methyl)amino)ethyl)amino)-2,4-dimethyl-1,2,4-triazine-3,5(2H,4H)-dione] |

| Structure (SMILES) | IC50 [nM] |
| --- | --- |
| CN(C)C(CNc1nn(C)c(=O)n(C)c1=O)Cc1ccccc1 (racemic) [Example 11, 6-((2-(dimethylamino)-3-phenylpropyl)amino)-2,4-dimethyl-1,2,4-triazine-3,5(2H,4H)-dione] | 1400 |
